Experiment [1] concerns hCD38. The experiment in a line: Phage display biopanning, PHASTpep selectivity score. The note with it: fold change of peptide frequency hCD38 versus average of hCD4, hCD8, GST-His; two rounds of biopanning, NGS. It counts as binding, human. The source says:
Using phage display and purified human CD38 protein (hCD38), the first generation high- and low-selectivity CD38-targeted peptides were identified for the development of CD38-targeted imaging agents. Briefly, two rounds of phage display screening using the PHASTpep platform identified selective peptides for human CD38. CD38 (R&D, Catalog 2404-AC-010, Minneapolis, MN, U.S.A.) or negative control proteins, human CD4 (hCD4), human CD8 (hCD8), and GST-6His were adsorbed on Maxisorp plates (Nalgene, Nunc #442,404) according to NEB phage display protocols (NEB, Ipswich, MA). A 10 μL aliquot of PhD7 library (7 amino acid linear library) (2 × 10^11 phage) (NEB, #E8211S) diluted in blocking buffer (DPBS/1% bovine serum albumin (BSA)) was added to each well. After 1 h of incubation at room temperature, wells were washed five times with blocking buffer and the remaining bound phage eluted into 100 μL of glycine buffer (0.2 M glycine, 0.5 M NaCl, pH 2.2) for 9 min before immediately neutralizing with 17 μL of 1 M Tris–HCl (pH 9.2).
For analysis, sequencing of the selected phage clones was performed as described in Brinton et al.. Samples sent to the UVA Biomolecular Research Core Facility were deep sequenced on an Illumina MiSeq Sequencer. FASTQ files were analyzed using PHASTpep. PHASTpep analyzed files were aligned for amino acid sequence homology using the Smith—Waterman algorithm.
To identify peptides selective for CD38, we biopanned a random, 7 amino acid peptide phage library on recombinant hCD38 as well as hCD4, hCD8, and GST-His. After two rounds of biopanning on each protein, phage were harvested, amplified, and processed for next generation sequencing (NGS). FASTQ files were uploaded into PHASTpep, translated into peptides, and tables of frequency produced. All sequences were normalized to the naïve library (preselection) sequence frequencies and finally the fold change for each peptide frequency between hCD38 and the average of the same peptide frequency from the hCD4, hCD8, and GST-His screens was calculated. The Smith-Waterman homology algorithm was employed to identify clusters of similar peptides (Table S1). From the analysis, two clusters emerged with more than 5 peptides in the homology family and also had high selectivity (PHASTpep Score, Table S1).

Experiment [2] has as its target T1, Recombinant human CD38 protein (Homo sapiens, UniProt P28907). The experiment in a line: Microscale thermophoresis (MST) binding affinity. Also on record: purchased R&D 2404-AC-010. To be noted: for Response Amplitude: Table S2. As for the experimental part:
Microscale thermophoresis (MST) assays determined the binding affinity of synthesized peptides to purified CD38 protein and was performed using the Monolith NT.115 (Nanotemper Technologies, Munich, Germany). […] Recombinant human CD38 protein (R&D, Catalog 2404-AC-010, Minneapolis, MN) was labeled with NT647 (Protein labeling kit red-maleimide, Nanotemper Technologies, Germany) and subsequently diluted to 5 nM in MST-2 buffer (50 mM Tris–HCl, pH 7.4, 150 mM NaCl, 10 mM MgCl2, 2% DMSO, and 0.1% Tween-20). Fluorescence was assessed in MST-2 buffer. Samples were loaded into NT.115 standard capillaries, and analysis was performed at 37 °C, 10% LED power, and 40% MST power. The Kd values were calculated from fragment concentration-dependent changes in normalized fluorescence (Fraction Bound) of different CD38 peptides based on the law of mass action using the MO Affinity Analysis v2.3 software.
Microscale Thermophoresis (MST) measures molecular interactions based on temperature gradient-dependent mobility of fluorescent biomolecules.
Fig. 1 Binding studies evaluating CD38-peptides using purified CD38 protein. Microscale thermophoresis (MST) analysis of binding affinities between purified CD38 protein and various CD38 peptide sequences.
(In general: In MST a laser heats a spot of the sample, and binding alters the fluorescence response.)

In experiment [3] the target is T2, CD38 on MM.1S-CBR-GFP-WT cells (Homo sapiens, UniProt P28907).
T2 construct: endogenous in cells; host or cells: MM.1S-CBR-GFP-WT human myeloma cells
The experiment in a line: In vitro blocking study of ^64Cu-NODAGA-PEG4-SL022-GGS cell binding. It counts as cell-based. The note with it: for blocking of ^64Cu-NODAGA-PEG4-SL022-GGS binding: 75 μM blocker, MM.1S-CBR-GFP-WT cells. As for the experimental part: To evaluate the specificity of the CD38 binding peptide, MM.1S-CBR-GFP-WT cells were suspended in binding buffer (Hank’s Balanced Salt Solution with 1 mM Ca^2+ and 1 mM Mg^2+ (HBSS + / +, Gibco, ThermoFisher, Waltham, MA) supplemented with 0.1% BSA) at 4 × 10^5 cells per 250 μL, representing the reaction volume.
In order to determine whether the conjugates were able to identify CD38 protein expressed in its native context, we performed cell binding assays with MM.1S-CBR-GFP-WT cells.

The target in experiment [4] is T1, Recombinant human CD38 protein. The experiment in a line: MST; Monolith NT.115; NT647-labeled recombinant human CD38 at 5 nM in MST-2 buffer (50 mM Tris-HCl pH 7.4, 150 mM NaCl, 10 mM MgCl2, 2% DMSO, 0.1% Tween-20); peptides titrated (0.0305 nM to 1000 nM or 0.0305 uM to 1000 uM); 37 °C, 10% LED power, 40% MST power.

In the case of DLVHYPE, in experiment [1], the “Score (PHASTpep Score)” value was determined as 1.5.
Consider QTSHDWL, for which the “Score (PHASTpep Score)” value in experiment [1] is recorded as 1.7.
Turning to VNYHFPV, in experiment [2], the “binding to purified CD38” value is “negligible binding”. The “Score (PHASTpep Score)” value in experiment [1] is 1.2.
As to MPVARDW, the “Score (PHASTpep Score)” value in experiment [1] worked out at 2.1.
For “NODAGA-PEG4-Thr-His-Tyr-Pro-Ile-Val-Ile-Gly-Gly-Ser-Lys-NH2 [NODAGA-PEG4-SL022-GGS]”, in experiment [3] (300 nM tracer, 4 °C, 60 min), the “blocking of ^64Cu-NODAGA-PEG4-SL022-GGS binding” value is given as 58%. Further, in experiment [3] (250-fold molar excess of unlabeled blocker), the “decrease in cell-bound ^64Cu-NODAGA-PEG4-SL022-GGS” value is recorded as “about 2 fold”.
Take “AC-Thr-His-Tyr-Pro-Ile-Val-Ile-Gly-Gly-Ser Lys-NH2 [AC-SL022-GGS]”: in experiment [2], the “Response Amplitude” value came out at 4.91.
Consider YKDWSEW, for which the “Score (PHASTpep Score)” value in experiment [1] turned out to be 266.4.
Take “daratumumab: CD38-targeted FDA approved antibody [reference compound]”: the “blocking of ^64Cu-NODAGA-PEG4-SL022-GGS binding” value in experiment [3] (300 nM tracer, 4 °C, 60 min) came out at 73%. Also, the “cell-bound ^64Cu-NODAGA-PEG4-SL022-GGS in presence of blocker” value in experiment [3] (300 nM tracer, 75 μM unlabeled blocker (250-fold molar excess), 4 °C, 60 min, mean ± SD) was found to be 3000 ± 600 fmol/mg.
In the case of TPYPIVL, in experiment [1], the “Score (PHASTpep Score)” value was 429.7.
Regarding YDWTMHS, the “Score (PHASTpep Score)” value in experiment [1] is 299.7.
QGTDWTM: the “Score (PHASTpep Score)” value in experiment [1] stood at 1.7.
With Thr-His-Tyr-Pro-Ile-Val-Ile [THYPIVI], the “Score (PHASTpep Score)” value in experiment [1] amounted to 730.1.
VSYHFPV: the “Score (PHASTpep Score)” value in experiment [1] is 194.4.
In the case of “AC-Phe-Ser-Arg-Asp-Trp-Thr-Ser-Gly-Gly-Ser-Lys-NH2 [AC-SL028-GGS]”, in experiment [2], the “Response Amplitude” value is on record as 4.64.
Turning to FSRDWTS, in experiment [1], the “Score (PHASTpep Score)” value turned out to be 671.1.
Usually Kd stands for a measure of binding affinity in units of concentration. As to H-KGGSFSRDWTS-NH2 [GGS-SL028 (H-Lys-Gly-Gly-Ser-Phe-Ser-Arg-Asp-Trp-Thr-Ser-NH2)], the Kd in experiment [4] was determined as 82.6 nM.
As for FSRDWTSGGSK (AC (acetyl) on the N-terminus; C-terminal amide) [AC-SL028-GGS (AC-Phe-Ser-Arg-Asp-Trp-Thr-Ser-Gly-Gly-Ser-Lys-NH2)], the Kd in experiment [4] was found to be 243 nM.

For the origin of these results see PMC11282151, “Development of New CD38 Targeted Peptides for Cancer Imaging” (Molecular imaging and biology, 2024).
